Results on 2 molecules are retold here after patent US5830855A, “Lipodepsipeptides as antifungal and fungicidal agents” (priority 1996, dated 1998).

One series concerns Sheep erythrocytes. The series can be described thus: Erythrocyte toxicity (sheep RBC hemolysis, hemoglobin release). Type of series: cell-based. To be noted: 37° C. 1 hr, FIG. 1 and 2. The protocol:
Erythrocyte Toxicity: Sheep red blood cell (RBC) hemolysis was used to assess erythrocyte toxicity of the CLPs and AmB. RBCs (MicroBio Products, Inc., Salt Lake City, Utah) were washed four times with phosphate-buffered-saline (PBS) by centrifugation at 800× g for 10 min and adjusted to 1×10^8 cells/ml as previously described by Chavanet, P., V. Joly, D. Rigaud, J. Bolard, C. Carbon, and P. Yeni. 1994. Influence of diet on experimental toxicity of amphotericin B deoxycholate. Antimicrob. Agents Chemother. 38(5):963-968. RBCs and a 2× concentration of SR-E, ST-B or SS-A in PBS were mixed in a 1:1 ratio and incubated at 37° C. for 1 hr. After incubation, cells were pelleted by centrifugation at 800× g for 10 min and the supernatant was collected and the absorbance at 550 nm was determined. […] Distilled water and PBS were used as lysis and hemoglobin retention controls, respectfully, as described by National Committee for Clinical Laboratory Standards. 1992. Reference method for broth dilution antifungal susceptibility testing of yeasts; proposed standard, NCCLS document M27-P (ISBN 1-56238-186-5). NCCLS, Villanova.

The subject of series [1] is monoclonal antibody to CD3 (anti-CD3)-induced lymphocyte proliferation. Kind of series: anti-CD3-induced lymphocyte proliferation ([3H]-thymidine incorporation). It counts as cell-based, human. The protocol: (§1) Lipodepsipeptide for Immunosuppression Experiments: SR-E was purified as previously described in Bidwai, A. P., Bachmann, R. C. and Takemoto, J. Y., "Mechanism of action of Pseudomonas syringae phytotoxin syringomycin". Plant Physiol. 83:39-43 (1987). A stock solution (10 mg per ml) was prepared in RPMI1640 culture media, aliquoted and stored frozen at -20°.
Lymphocyte stimulation: Lymphocyte stimulation was performed with three different mitogens: phytohemagglutinin (PHA), pokeweed mitogen (PWM), and monoclonal antibody to CD3 (anti-CD3). […]
Mitogen-induced lymphocyte proliferation: Peripheral blood mononuclear cells (MNC) (containing lymphocytes and monocytes) were separated by Ficoll-Hypaque density-gradient centrifugation using techniques well known in the art. Mitogen-induced lymphocyte proliferation was determined as previously described in Singh, V. K., "Stimulatory effect of corticotropin-releasing neurohormone on human lymphocyte proliferation and interleukin-2 receptor expression". […]
[^3 H]-thymadine Incorporation: Cells were pulse-labeled for 4 hours with 0.5 μCi/well of [^3 H]methyl-thymidine (spec. act.=25 Ci/mmol from Amersham Intl.). […] To each vial, 2 ml of CytoScint fluid (ICN Biomedicals) was dispensed and the radioactivity determined using a liquid scintillation counter (Tri-Carb, Packard). […]

For series [2], the system named is lymphocytes (peripheral blood mononuclear cells). Kind of series: Lymphocyte proliferation in the absence of mitogens ([3H]-thymidine incorporation). To be noted: SR-E at concentrations of 5.72 μM and lower; FIG. 3. It counts as cell-based, human. The protocol:
as §1
Mitogen-induced lymphocyte proliferation: Peripheral blood mononuclear cells (MNC) (containing lymphocytes and monocytes) were separated by Ficoll-Hypaque density-gradient centrifugation using techniques well known in the art. Mitogen-induced lymphocyte proliferation was determined as previously described in Singh, V. K., "Stimulatory effect of corticotropin-releasing neurohormone on human lymphocyte proliferation and interleukin-2 receptor expression". J.Neuroimmunol.23.257-262 (1989). Briefly, MNC were cultured in triplicate in 96-well microtiter plates (Corning, Inc.). […]
[^3 H]-thymadine Incorporation: Cells were pulse-labeled for 4 hours with 0.5 μCi/well of [^3 H]methyl-thymidine (spec. act.=25 Ci/mmol from Amersham Intl.). […] To each vial, 2 ml of CytoScint fluid (ICN Biomedicals) was dispensed and the radioactivity determined using a liquid scintillation counter (Tri-Carb, Packard). The rate of [^3 H]-thymidine incorporation by MNC was calculated as counts per minute per 10 ^5 cells.
(Uptake of a labelled nucleoside into DNA is a usual measure of proliferation.)

Molecules are shown by their SMILES. Numbered stars: 1 amine (or outer) side, 2 acyl side, 3 side chain; on linkers, the order of the positions; unused ones are H or OH. Bridge positions count the residues as written; N and C are the ends. Square brackets hold non-standard residues; d marks the D form. Peptide text beside a SMILES is read from it. * marks the point of attachment. ξ: configuration not given here. Asp(3S-OH) = N[C@H](C(=O)O)[C@H](O)C(=O)O; Thr(4-Cl) = N[C@H](C(=O)O)[C@H](O)CCl; ξAsp(3ξ-OH) = NC(C(=O)O)C(O)C(=O)O; X3 = O=C(C(N[*:1])C(O)CCl)[*:2]; X1 = CCCCCCCCC[C@@H](O)CC(=O)*; X2 = CCCCCCCCCCCC(O)CC(=O)*; dDab = NCC[C@@H](N)C(=O)O; Dab = NCC[CH](N)C(=O)O; Orn = NCCC[CH](N)C(=O)O; hSer = N[CH](CCO)C(=O)O; Dhb = C/C=C(\N)C(=O)O

Turning to `C/C=C1\NC(=O)C(C(C)O)NC(=O)C(CCCN)NC(=O)C(CCO)NC(=O)CNC(=O)C(CCN)NC(=O)C(NC(=O)CC(O)CCCCCCCCCCC)COC(=O)C(C(O)CCl)NC(=O)C(C(O)C(=O)O)NC1=O` (stereo not shown) [ST-B, Syringotoxin B] (X2-S[Dab]G[hSer][Orn]T[Dhb][ξAsp(3ξ-OH)][X3]; ester 1-C; configuration not given here), the “erythrocyte toxicity (lysis, hemoglobin release)” value with Sheep erythrocytes is on record as “least toxic of the three CLPs”.

Consider `C/C=C1\NC(=O)[C@H](Cc2ccccc2)NC(=O)[C@H](CCCN=C(N)N)NC(=O)[C@@H](CCN)NC(=O)[C@H](CCN)NC(=O)[C@@H](CO)NC(=O)[C@@H](NC(=O)C[C@H](O)CCCCCCCCC)COC(=O)[C@H]([C@H](O)CCl)NC(=O)[C@H]([C@H](O)C(=O)O)NC1=O` [SR-E, Syringomycin-E] (X1-S[dS][Dab][dDab]RF[Dhb][Asp(3S-OH)][Thr(4-Cl)]; ester 1-C), for which, in series [1] (1.14 μM), the “significant inhibition of anti-CD3 response” value was “not”. In series [1] (5.72 μM, p=0.02), the “suppression of anti-CD3 response” value is 30%. The “effect on cell proliferation in the absence of mitogens ([3H]-thymidine incorporation)” value in series [2] was “no effect”.
